{"source": "the supplement of paper PMC10307832", "test_in_all_cases": "relative viability (nuclei count vs DMSO), 5 days (fraction); higher = more cells survive", "key": {"FG-4592 + Olaparib": {"compound": "Cc1nc(C(=O)NCC(=O)O)c(O)c2ccc(Oc3ccccc3)cc12 [FG-4592] + O=C(c1cc(Cc2n[nH]c(=O)c3ccccc23)ccc1F)N1CCN(C(=O)C2CC2)CC1 [Olaparib] (partner 8 µM)", "summary_of_the_method": "(§1)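 Lung cancer cell lines were seeded in 1536-well plates and dosed by pin tool the next day, with either a single drug or a fixed anchor-drug dose combined with five library-drug doses (not always all listed) spaced in √10 steps. Five days later, one step fixed the cells and stained their nuclei (final 0.05% Triton X-100, 1% formaldehyde, 1 ug/ml Hoechst), and nuclei were counted on 4× images. Relative viability is the nuclei count in treated wells divided by the count in vehicle wells, and each value is the median of duplicate plates.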"}, "IU1-47 + Dasatinib": {"compound": "CC1=CC(=C(N1C2=CC=C(C=C2)Cl)C)C(=O)CN3CCCCC3 [IU1-47] + Cc1nc(Nc2ncc(C(=O)Nc3c(C)cccc3Cl)s2)cc(N2CCN(CCO)CC2)n1 [Dasatinib] (partner 0.075 µM)", "summary_of_the_method": "as §1"}, "FG-4592 + Pictilisib": {"compound": "Cc1nc(C(=O)NCC(=O)O)c(O)c2ccc(Oc3ccccc3)cc12 [FG-4592] + CS(=O)(=O)N1CCN(Cc2cc3nc(-c4cccc5[nH]ncc45)nc(N4CCOCC4)c3s2)CC1 [Pictilisib] (partner 1 µM)", "summary_of_the_method": "as §1"}, "IU1-47 + Olaparib": {"compound": "CC1=CC(=C(N1C2=CC=C(C=C2)Cl)C)C(=O)CN3CCCCC3 [IU1-47] + O=C(c1cc(Cc2n[nH]c(=O)c3ccccc23)ccc1F)N1CCN(C(=O)C2CC2)CC1 [Olaparib] (partner 8 µM)", "summary_of_the_method": "as §1"}}}
{"cell line": "UMC-11", "values": [{"measurement": "relative viability", "setting": "FG-4592 + Olaparib; first compound 0.08 µM", "value": 0.286}, {"measurement": "relative viability", "setting": "FG-4592 + Olaparib; first compound 0.253 µM", "value": 0.332}, {"measurement": "relative viability", "setting": "FG-4592 + Olaparib; first compound 0.8 µM", "value": 0.357}, {"measurement": "relative viability", "setting": "FG-4592 + Olaparib; first compound 2.53 µM", "value": 0.341}, {"measurement": "relative viability", "setting": "FG-4592 + Olaparib; first compound 8 µM", "value": 0.348}, {"measurement": "relative viability", "setting": "IU1-47 + Dasatinib; first compound 0.08 µM", "value": 0.429}, {"measurement": "relative viability", "setting": "IU1-47 + Dasatinib; first compound 0.253 µM", "value": 0.423}, {"measurement": "relative viability", "setting": "IU1-47 + Dasatinib; first compound 0.8 µM", "value": 0.572}, {"measurement": "relative viability", "setting": "IU1-47 + Dasatinib; first compound 2.53 µM", "value": 0.388}, {"measurement": "relative viability", "setting": "IU1-47 + Dasatinib; first compound 8 µM", "value": 0.341}, {"measurement": "relative viability", "setting": "FG-4592 + Pictilisib; first compound 0.08 µM", "value": 0.722}, {"measurement": "relative viability", "setting": "FG-4592 + Pictilisib; first compound 0.253 µM", "value": 0.714}, {"measurement": "relative viability", "setting": "FG-4592 + Pictilisib; first compound 0.8 µM", "value": 0.599}, {"measurement": "relative viability", "setting": "FG-4592 + Pictilisib; first compound 2.53 µM", "value": 0.74}, {"measurement": "relative viability", "setting": "FG-4592 + Pictilisib; first compound 8 µM", "value": 0.7}, {"measurement": "relative viability", "setting": "IU1-47 + Olaparib; first compound 0.08 µM", "value": 0.402}, {"measurement": "relative viability", "setting": "IU1-47 + Olaparib; first compound 0.253 µM", "value": 0.429}, {"measurement": "relative viability", "setting": "IU1-47 + Olaparib; first compound 0.8 µM", "value": 0.368}, {"measurement": "relative viability", "setting": "IU1-47 + Olaparib; first compound 2.53 µM", "value": 0.328}, {"measurement": "relative viability", "setting": "IU1-47 + Olaparib; first compound 8 µM", "value": 0.373}]}
